Laboratory results: US11976043B1, “3-cyano-2-ethoxy-9-(2-nitrobenzylidene)-4-(2-nitrophenyl)-6,7,8,9-tetrahydro-5H-cyclohepta[b]pyridine as an antimicrobial compound” (KING FAISAL UNIVERSITY, priority 2023, dated 2024)

Assays:
Conditions in all cases: after 10, 20, 40 and 60 min at all dilutions 1:100, 1:200, 1:400, 1:800
St. Aereus = experiment: Antimicrobial testing by agar dilution, St. Aereus; assay type: cell-based, Staphylococcus aureus
Protocol: (§1) The antimicrobial properties of the 3-cyano-2-ethoxy-9-(2-nitrobenzylidene)-4-(2-nitrophenyl)-6,7,8,9-tetrahydro-5H-cyclohepta[b]pyridine was studied by the method of agar dilution. Test solutions of each compound was prepared in concentration of 1% using dimethylformamide as a solvent then they are diluted in physiological solution to obtain the final experimental dilutions 1:100, 1:200, 1:400, 1:800. The effect of these substances are compared with furacillin in a controlable study. The testing microbes used were gram positive bacteria St. Aereus, gram negative bacteria E. coli, Ps. aeruginosa and Candida albicans fungi were taken.
(§2) The experiments used for this survey were meat-pentonlu agar (EPA) for cultivation of bacteria and Saburo environment for fungi. Each experiment used 1 ml of test solution on each plate 500 min. Add 2 drops of emulsified with microbes feel. All experimental samples were taken from the agar after 10, 20, 40, 60 minutes in the environment on the basis of Patrk planted. Bacteria were cultivated at a temperature of 37° C. for 1 day and the mushroom was kept in a thermostat for […] at a temperature of 28° C. in the. Then results were checked.

E. coli = experiment: Antimicrobial testing by agar dilution, E. coli; assay type: cell-based, Escherichia coli
Protocol: as §1, §2

Candida albicans = experiment: Antimicrobial testing by agar dilution, Candida albicans; assay type: cell-based
Protocol: as §1, §2

Ps. aeruginosa = experiment: Antimicrobial testing by agar dilution, Ps. aeruginosa; assay type: cell-based, Pseudomonas aeruginosa
Protocol: as §1, §2

Measured: inhibition activity (in words)

CCOc1nc2c(c(-c3ccccc3[N+](=O)[O-])c1C#N)CCCCC2=Cc1ccccc1[N+](=O)[O-] [3-cyano-2-ethoxy-9-(2-nitrobenzylidene)-4-(2-nitrophenyl)-6,7,8,9-tetrahydro-5H-cyclohepta[b]pyridine]
most higher inhibition activity: all assays above
